Reference: patent US20040009921A1, “Methods and compositions for the treatment of cancer” (Allergan, Inc., priority 2002, published 2004)
“Also recorded” adds a separate entry of the source.

Assays:
[1] = test system: hepatocarcinoma; conditions: experimental and clinical studies; cited from earlier work
[2] = test system: β-catenin; assay: Western blotting of β-catenin protein in HEK293 cells and stable lines RBC, CAT, RmBC; type: cell-based, human; conditions: for β-catenin stability / degradation, ligand applied alone: HEK293 with β-catenin and RXRα, FIG. 4B
Description: (§1) (A) Western blotting analysis of HEK293 cells transfected with a combination of expression vectors for LacZ (2 μg), V5-tagged β-catenin(4 μg), and Flag-tagged RXRα (2 μg) as indicated below the gels. […] RXRα protein was measured using an HRP-conjugated mouse monoclonal antibody against the Flag tag. (B) Western blotting analysis of stable cell line RBC that overexpresses both β-catenin and RXRα. […] (C) Western blotting analysis of stable cell line CAT that overexpresses only β-catenin. […] Endogenous and overexpressed β-catenin were detected using a rabbit polyclonal antibody as indicated by “Total” whereas overexpressed β-catenin was analyzed using a mouse monoclonal antibody against the V5 tag. Endogenous and overexpressed RXRα were detected by a rabbit polyclonal antibody against RXRα, whereas overexpressed RXRα was determined by an HRP-conjugated mouse monoclonal antibody against the Flag tag. (D) Western blotting analysis of HEK293 cells transfected with a fixed amount of β-catenin (4 μg) plus an increasing amount of RXRα as indicated at the top. […] (E) Western blotting analysis of HEK293, CV-1, and Hela cells transfected with 2 μg of RXRα and 4 μg of wild type or mutant β-catenin. α. […] (F) Northern blotting analysis of RBC cells using β-catenin as a probe.
(§2) FIG. 4 Receptor and ligand specificity in degradation of β-catenin by retinoid receptors. HEK293 cells transfected with expression vectors for β-catenin (4 μg) and RXRs (2 μg) or RARs (2 μg) and treated with ligands at concentrations indicated at the top of each gel. Protein levels were detected by Western blotting as shown in this figure. β-catenin and RARs were detected by HRP-conjugated antibodies against their V5 tag. RXRs were detected by HRP-conjugated antibodies against their Flag tag. […] In this experiment, the amount of expression vectors for RXRα and RARs used in transfection was 1 μg.
(§3) HEK293 cells were seeded at a density of […] per dish were seeded into 100-mm dishes and cultured overnight in DMEM containing 10% FBS. Cells were transfected with 1-4 μg of various cDNA or parental expression vectors (8 μg of DNA in total) using Lipofectamine®. Five hours after transfection, cells were fed with fresh culture media DMEM containing 10% charcoal-treated FBS with vehicle DMSO or retinoids prepared in DMSO. After a given time of treatment, cells were harvested and lysed in a buffer containing 1% Nonidet® P-40, 30 mM Tris-HCl (pH7.4), 0.5 mM EDTA (pH 8.0), 150 mM NaCl, 10% glycerol, 1 mM sodium orthovanadate, 40 mM NaF, 0.5 mM phenylmethylsulfonyl fluoride (PMSF) and a cocktail of protease inhibitors (Merck).
(§4) Total cell lysates were homogenized by passing through a QIAshredder® (Qiagen) and cleared from insoluble materials by centriftigation at 12,000 g. Protein concentration was determined using a Bradford total protein assay kit (Bio-Rad). Total cell lysates were electrophoresed using a 4-12% SDS-PAGE gradient gel and transferred to either nitrocellulose or PVDF filter membranes. The membranes were blocked with 10% non-fat milk reconstituted from dairy milk powder in phosphate-buffered saline (PBS) containing 0.1% Tween®-20 (PBST). The membranes were incubated with primary antibodies at room temperature for 2 hours or at 4° C. for overnight. After the removal of unbound antibodies, membranes were incubated with horseradish peroxidase-conjugated secondary antibodies for one hour at room temperature and washed five times with PBST.

[3] = test system: RXRα; assay: Western blotting of RXRα protein in HEK293 cells and stable lines; type: cell-based, human; conditions: HEK293 with β-catenin and RXRα, FIG. 4B
Description: as §1, §2, §3, §4

Compound | development of hepatocarcinoma [1] | β-catenin protein ([2]; HEK293 overexpressing RARα) | β-catenin stability / degradation, ligand applied alone [2] | RXRα stability, ligand applied alone [3] | antagonism of the effect of AGN 4204 on degradation of RARs and β-catenin ([2]; HEK293 co-expressing RXRα and RARs, with AGN 4204) | β-catenin stability / degradation, ligand applied alone ([2]; listed as AGN194310)
CC1=C(/C=C/C(C)=C\C=C\C(C)=C\C(=O)O)C(C)(C)CCC1 [9-cis retinoic acid] | suppress the development of hepatocarcinoma |  |  |  |  | 
C/C(=C\c1ccc(C(=O)O)cc1)c1ccc2c(c1)C(C)(C)CCC2(C)C [TTNPB, reference compound] |  | a slight decrease | have no effects; also recorded: no effect | no effect |  | 
CCc1ccc(C2=CC(C)(C)Sc3ccc(C#Cc4ccc(C(=O)O)cc4)cc32)cc1 [compound 194310, reference compound] |  |  | no effect | no effect | not antagonized | have no effects
